The source of these data is patent EP0928784B1, “Sertraline polymorph having improved water solubility” (TORCAN CHEMICAL Ltd, priority 1997, dated 1999).

Where a name gives a salt, the structure may show the parent alone. Read-outs that look alike come from different tables or passages of the source.

Data set [1] can be described thus: Stability of the crystalline form (qualitative, no method described). Type of data set: physicochemical. To be noted: applicant's statement.
Data set [2] in a line: Solubility in aqueous fluids (qualitative, no method described). The format is physicochemical.
A short description of data set [3]: Dissolution rate (qualitative, no method described). Type of data set: physicochemical. To be noted: with regard to bioavailability in pharmaceutical formulations.
For data set [4] the following is noted: as reported in U.S. Patent 5,248,699, among Forms I-V; cited from earlier work.

With `CN[C@H]1CC[C@@H](c2ccc(Cl)c(Cl)c2)c2ccccc21` [polymorph T1, (1S-cis)-4-(3,4-dichlorophenyl)-1,2,3,4-tetrahydro-N-methyl-1-naphthalenamine], the stability entry in data set [1] is listed as “acceptable stability”. In addition, in data set [2] (as compared with Form I sertraline hydrochloride), the “solubility in aqueous fluids” value is on record as “enhanced solubility in aqueous fluids”.
With `CN[C@H]1CC[C@@H](c2ccc(Cl)c(Cl)c2)c2ccccc21` [sertraline hydrochloride Form I, (1S-cis)-4-(3,4-dichlorophenyl)-1,2,3,4-tetrahydro-N-methyl-1-naphthalenamine], in data set [3], the dissolution rate result was “too slow to provide adequate bioavailability”. Further, the stability result is recorded as “stable as reported” in data set [1] and “greatest stability” in data set [4]. For the same molecule, the solubility result in data set [2] (prepared in applicant's laboratory according to Sysko et al., aqueous fluids) was “extremely insoluble”.
